# Assay results: patent US20260167623A1 (NIKANG THERAPEUTICS, INC., priority 2022, published 2026)
# Target: T1, CDK2 (Homo sapiens, UniProt P24941)
# T1 construct: High-Throughput Measurement of Cellular Endogenous CDK2; endogenous in cells; host or cells: OVCAR3
# Test: Inhibition of CDK2: phospho-Rb (S807/811) HTRF measurement in OVCAR3 cells, 24 h
# Type: cell-based
# Conditions: 24 h compound treatment, read-out: pRB_OVCAR3_24h
# How it was run: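 IC50 came from a four-parameter fit of DMSO-normalized TR-FRET ratios (665/620 nm) reporting phospho-Rb S807/811. Lysates were taken from OVCAR3 cultures treated 24 h with compound (0.3 to 10,000 nM) and incubated 4 h at room temperature with the antibody pair.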
row,IC50,Compound
1,> 2500 nM,"Cn1nc(N2CCC(=O)NC2=O)c2ccc(C3CCN(Cc4cccc(S(=O)(=O)N5CC6(CC(Nc7ncc(C(F)(F)F)cn7)C6)C5)c4)CC3)cc21 [Example 146, 1-(1-methyl-6-(1-(3-((6-((5-(trifluoro-methyl)pyrimidin-2-yl)amino)-2-azaspiro[3.3]heptan-2-yl)sulfonyl)benzyl)-piperidin-4-yl)-1H-indazol-3-yl)dihydropyrimidine-2,4(1H,3H)-dione]"
2,100 to 500 nM,"Cn1nc(N2CCC(=O)NC2=O)c2ccc(C3CCN(CC4CCN(c5cccc(S(=O)(=O)N6CCC(Nc7ncc(OC8CC8)cn7)CC6)c5)CC4)CC3)cc21 [Example 252, 1-(6-(1-((1-(3-((4-((5-cyclopropoxypyrimidin-2-yl)amino)piperidin-1-yl)sulfonyl)phenyl)piperidin-4-yl)methyl)piperidin-4-yl)-1-methyl-1H-indazol-3-yl)dihydropyrimidine-2,4(1H,3H)-dione]"
3,100 to 500 nM,"Cn1nc(N2CCC(=O)NC2=O)c2ccc(C3CCN(C[C@H]4CCCN4c4cc(S(=O)(=O)N5CCC(Nc6ncc(OC(F)F)cn6)CC5)ccc4C#N)CC3)cc21 [Example 255, (R)-4-((4-((5-(difluoromethoxy)pyrimidin-2-yl)amino)piperidin-1-yl)sulfonyl)-2-(2-((4-(3-(2,4-dioxotetrahydropyrimidin-1(2H)-yl)-1-methyl-1H-indazol-6-yl)piperidin-1-yl)methyl)pyrrolidin-1-yl)benzonitrile]"
4,100 to 500 nM,"O=C1CCC(n2c(=O)n(C3CCN(CC4CCN(c5cccc(S(=O)(=O)N6CCC(Nc7ncc(C(F)(F)F)cn7)CC6)c5)CC4)CC3)c3ccccc32)C(=O)N1 (stereo not shown) [Example 171, 3-(2-oxo-3-(1-((1-(3-((4-((5-(trifluoromethyl)pyrimidin-2-yl)amino)piperidin-1-yl)sulfonyl)phenyl)piperidin-4-yl)methyl)piperidin-4-yl)-2,3-dihydro-1H-benzo[d]imidazol-1-yl)piperidine-2,6-dione]"
5,100 to 500 nM,"Cn1nc(-n2ccc(=O)[nH]c2=O)c2ccc(C3CCN(CC4CCN(c5cccc(S(=O)(=O)N6CCC(Nc7ncc(Cl)cn7)CC6)c5)CC4)CC3)cc21 [Example 210, 1-(6-(1-((1-(3-((4-((5-chloropyrimidin-2-yl)amino)piperidin-1-yl)sulfonyl)phenyl)piperidin-4-yl)methyl)piperidin-4-yl)-1-methyl-1H-indazol-3-yl)pyrimidine-2,4(1H,3H)-dione]"
6,100 to 500 nM,"Cn1nc(N2CCC(=O)NC2=O)c2ccc(N3CC4CCC(C3)N4CC3CCN(c4cccc(S(=O)(=O)N5CCC(Nc6ncc(Cl)cn6)CC5)c4)CC3)cc21 [Example 114, 1-(6-(8-((1-(3-((4-((5-chloropyrimidin-2-yl)amino)piperidin-1-yl)sulfonyl)phenyl)-piperidin-4-yl)methyl)-3,8-diaza-bicyclo[3.2.1]octan-3-yl)-1-methyl-1H-indazol-3-yl)dihydropyrimidine-2,4(1H,3H)-dione]"
7,100 to 500 nM,"O=C1CCC(NC(=O)c2ccc(C3CCN(CC4CCN(c5cccc(S(=O)(=O)N6CCC(Nc7ncc(C(F)(F)F)cn7)CC6)c5)CC4)CC3)cn2)C(=O)N1 (stereo not shown) [Example 225, N-(2,6-dioxopiperidin-3-yl)-5-(1-((1-(3-((4-((5-(trifluoromethyl)pyrimidin-2-yl)amino)piperidin-1-yl)sulfonyl)phenyl)piperidin-4-yl)methyl)piperidin-4-yl)picolinamide]"
8,500 to 2500 nM,"Cn1nc(N2CCC(=O)NC2=O)c2ncc(C3CCN(CC4CCN(c5cccc(S(=O)(=O)N6CCC(Nc7ncc(C(F)(F)F)cn7)CC6)c5)CC4)CC3)cc21 [Example 212, 1-(1-methyl-6-(1-((1-(3-((4-((5-(trifluoromethyl)pyrimidin-2-yl)amino)piperidin-1-yl)sulfonyl)phenyl)piperidin-4-yl)methyl)piperidin-4-yl)-1H-pyrazolo[4,3-b]pyridin-3-yl)dihydropyrimidine-2,4(1H,3H)-dione]"
9,500 to 2500 nM,"Cn1nc(N2CCC(=O)NC2=O)c2ccc(C#CCN3CCN(c4cccc(S(=O)(=O)N5CCC(Nc6ncc(C(F)(F)F)cn6)CC5)c4)CC3)cc21 [Example 230, 1-(1-methyl-6-(3-(4-(3-((4-((5-(trifluoromethyl)pyrimidin-2-yl)amino)piperidin-1-yl)sulfonyl)phenyl)piperazin-1-yl)prop-1-yn-1-yl)-1H-indazol-3-yl)dihydropyrimidine-2,4(1H,3H)-dione]"
10,> 2500 nM,"Cn1nc(N2CCC(=O)NC2=O)c2ccc(C3CCN(Cc4cccc(S(=O)(=O)N5CCC(Nc6ncc(C(C)(F)F)cn6)CC5)c4)CC3)cc21 [Example 17, 1-(6-(1-(3-((4-((5-(1,1-difluoroethyl)-pyrimidin-2-yl)amino)piperidin-1-yl)sulfonyl)benzyl)piperidin-4-yl)-1-methyl-1H-indazol-3-yl)dihydropyrimidine-2,4(1H,3H)-dione]"
11,100 to 500 nM,"O=C1CCC(N2Cc3cc(N4CCC(Oc5cccc(S(=O)(=O)N6CCC(Nc7ncc(C(F)(F)F)cn7)CC6)c5)CC4)ccc3C2=O)C(=O)N1 (stereo not shown) [Example 41, 3-(1-ox0-5-(4-(3-((4-((5-(trifluoromethyl)-pyrimidin-2-yl)amino)piperidin-1-yl)sulfonyl)phenoxy)piperidin-1-yl)isoindolin-2-yl)piperidine-2,6-dione]"
12,100 to 500 nM,"O=C1CCN(c2ccc(N3CCN(CC4CCN(c5cccc(S(=O)(=O)N6CCC(Nc7ncc(Cl)cn7)CC6)c5)CC4)CC3)cc2)C(=O)N1 [Example 109, 1-(4-(4-((1-(3-((4-((5-chloropyrimidin-2-yl)amino)piperidin-1-yl)sulfonyl)phenyl)-piperidin-4-yl)methyl)piperazin-1-yl)phenyl) dihydropyrimidine-2,4(1H,3H)-dione]"
13,500 to 2500 nM,"O=C1CCC(N2C(=O)c3cc(F)c(N4CCN(Cc5cccc(S(=O)(=O)N6CCC(Nc7ncc(Cl)cn7)CC6)c5)CC4)cc3C2=O)C(=O)N1 (stereo not shown) [Example 22, 5-(4-(3-((4-((5-chloropyrimidin-2-yl)amino)piperidin-1-yl)sulfonyl)benzyl)-piperazin-1-yl)-2-(2,6-dioxopiperidin-3-yl)-6-fluoroisoindoline-1,3-dione]"
14,100 to 500 nM,"O=C1CCN(c2cncc3c(C4CCN(CC5CCN(c6cccc(S(=O)(=O)N7CCC(Nc8ncc(Cl)cn8)CC7)c6)CC5)CC4)cccc23)C(=O)N1 [Example 194, 1-(8-(1-((1-(3-((4-((5-chloropyrimidin-2-yl)amino)piperidin-1-yl)sulfonyl)phenyl)piperidin-4-yl)methyl)piperidin-4-yl)isoquinolin-4-yl)dihydropyrimidine-2,4(1H,3H)-dione]"
15,500 to 2500 nM,"Cn1nc(N2CCC(=O)NC2=O)c2ccc(C3CCN(CC4CCN(S(=O)(=O)[C@H]5CC[C@H](Nc6ncc(C(F)(F)F)cn6)CC5)CC4)CC3)cc21 [Example 20, 1-(1-methyl-6-(1-((1-(((1r,4r)-4-((5-(trifluoromethyl)pyrimidin-2-yl)amino)-cyclohexyl)sulfonyl)piperidin-4-yl)methyl)-piperidin-4-yl)-1H-indazol-3-yl)-dihydropyrimidine-2,4(1H,3H)-dione]"
16,100 to 500 nM,"O=C1CCC(N2Cc3cc(N4CCN(CC5CCN(c6cccc(S(=O)(=O)N7CCC(Nc8ncc(Cl)cn8)CC7)c6)CC5)CC4)ccc3C2=O)C(=O)N1 (stereo not shown) [Example 98, 3-(5-(4-((1-(3-((4-((5-chloropyrimidin-2-yl)amino)piperidin-1-yl)sulfonyl)phenyl)-piperidin-4-yl)methyl)piperazin-1-yl)-1-oxoisoindolin-2-yl)piperidine-2,6-dione]"
17,500 to 2500 nM,"Cn1nc(N2CCC(=O)NC2=O)c2ccc(C3CCN(CC4CCN(c5cccc(S(=O)(=O)N6CCC(Nc7ncc(C(F)F)cn7)CC6)c5)CC4)CC3)cc21 [Example 195, 1-(6-(1-((1-(3-((4-((5-(difluoromethyl)pyrimidin-2-yl)amino)piperidin-1-yl)sulfonyl)phenyl)piperidin-4-yl)methyl)piperidin-4-yl)-1-methyl-1H-indazol-3-yl)dihydropyrimidine-2,4(1H,3H)-dione]"
18,1 to 100 nM,"Cn1nc(N2CCC(=O)NC2=O)c2ccc(C3CCN(Cc4ccc(S(=O)(=O)N5CCC(Nc6ncc(Cl)cn6)CC5)cc4)CC3)cc21 [Example 63, 1-(6-(1-(4-((4-((5-chloropyrimidin-2-yl)amino)piperidin-1-yl)sulfonyl)benzyl)-piperidin-4-yl)-1-methyl-1H-indazol-3-yl)dihydropyrimidine-2,4(1H,3H)-dione]"
19,500 to 2500 nM,Cn1nc(N2CCC(=O)NC2=O)c2ccc(C3CCN(CCCC4CCN(S(=O)(=O)N5CCC(Nc6ncc(C(F)(F)F)cn6)CC5)CC4)CC3)cc21 [Example 36]
20,100 to 500 nM,"Cn1nc(N2CCC(=O)NC2=O)c2ccc(C3CCN(CC4CCC(c5cccc(S(=O)(=O)N6CCC(Nc7ncc(Cl)cn7)CC6)c5)CC4)CC3)cc21 (stereo not shown) [Example 156, 1-(6-(1-((4-(3-((4-((5-chloropyrimidin-2-yl)amino)piperidin-1-yl)sulfonyl)phenyl)cyclohexyl)methyl)piperidin-4-yl)-1-methyl-1H-indazol-3-yl)dihydropyrimidine-2,4(1H,3H)-dione 2,2,2-trifluoroacetate]"
21,100 to 500 nM,"Cn1nc(N2CCC(=O)NC2=O)c2ccc(C3CCN(C[C@@H]4CCCCN4c4cccc(S(=O)(=O)N5CCC(Nc6ncc(OC(F)F)cn6)CC5)c4)CC3)cc21 [Example 261, (S)-1-(6-(1-((1-(3-((4-((5-(difluoromethoxy)pyrimidin-2-yl)amino)piperidin-1-yl)sulfonyl)phenyl)piperidin-2-yl)methyl)piperidin-4-yl)-1-methyl-1H-indazol-3-yl)dihydropyrimidine-2,4(1H,3H)-dione]"
22,> 2500 nM,"Cn1cc(-c2cnc(NC3CCN(S(=O)(=O)c4cccc(N5CCC(CN6CCC(c7ccc8c(N9CCC(=O)NC9=O)nn(C)c8c7)CC6)CC5)c4)CC3)nc2)cn1 [Example 155, 1-(1-methyl-6-(1-((1-(3-((4-((5-(1-methyl-1H-pyrazol-4-yl)pyrimidin-2-yl)amino)piperidin-1-yl)sulfonyl)phenyl)piperidin-4-yl)methyl)piperidin-4-yl)-1H-indazol-3-yl)dihydropyrimidine-2,4(1H,3H)-dione]"
